According to patent US20210015834A1, “NK-1 ANTAGONISTS FOR USE IN THE TREATMENT OF OCULAR PAIN” (priority 2018, published 2021):

Tests used:
mouse cornea nociception = assay: Measurement of cornea sensitivity, eye-wiping test (NaCl 5M); assay type: in vivo, mice; conditions: for MPE increase, overall: three experiments; for MPE (maximal possible effect): one 10 μl drop
Source text: 8 week-old C57BL6/N (Charles-River, Italy) and B6.Cg-Tac1^tm1Bbm/J (SP-KO mouse, Jackson) male mice were used in all experiments. Carbon dioxide inhalation and subsequent cervical dislocation were applied to euthanize the animals. All experimental protocols were approved by the Animal Care and Use Committee of the IRCCS San Raffaele Scientific Institute, in accordance with the ARVO Statement for the Use of Animals in Ophthalmic and Vision Research.
Mice 8-week-old C57BL6/N (Charles-River, Italy) and B6.Cg-Tac1^tm1Bbm/J (Jackson) corneal sensitivity was measured with the eye wiping test^36. Briefly, animals were placed individually in an empty cage for 5 min to get acclimatized; one drop (10 μl) of NaCl 5M was put into the right eye of the animal and eye wipings with the ipsilateral forepaw were counted for 30 s. Subsequently, a drop (10 μl) of Fosaprepitant (2, 10 and 50 mg/mL, powder was weighted and dissolved in PBS to reach the desired final concentration, Ivemend, Merck Sharp & Dohme B.V), PBS, Diclofenac (0.1%, Dicloftil, Farmingea) or Oxybuprocaine chloride (4 mg/ml, Novesina, Laboratoire Thea) was put on the same eye and left for 3 min. […] Three experiments were performed, each with 8 mice per group. In a sub-group of experiments, cornea sensitivity was tested 24 hours after 10 days of topical treatment (10 μl) with 2 mg/mL Fosaprepitant (6 times/day).
Anti-nociceptive effect was calculated as maximal possible effect (% MPE or MPE %) for each mouse according to the following formula:
% MPE=100×(post-treatment wipe count−pre-treatment wipe count)/(0−pre-treatment wipe count).
Unpaired t-test was used to evaluate the differences in nociception after different treatments. A p value <0.05 was considered to be statistically significant. The statistical software GraphPad Prism 5.0 (GraphPad Software, La Jolla, Calif.) was used for all analyses. All data were expressed as mean±standard error of the means (SEM). All methods were performed in accordance with the relevant guidelines and regulations.

corneal sensitivity = assay: Corneal sensitivity, Cochet-Bonnet aesthesiometer, in a treated patient; assay type: in vivo, human
Source text: (§1) One patient affected with Stage II (Foster) ocular cicatritial pemphigoid and intractable ocular pain was recruited on a compassionate trial of Fosaprepitant, upon administration and acceptance of informed consent, after consultation with the San Raffaele Hospital Ethics Committee. The patient reported the pain to be located on the ocular surface of both eyes and rated it 9/10 on the right eye and 2/10 on the left eye. Visual acuity was light perception in both eyes and the left eye presented a descemetocele. In the right eye the cornea presented diffuse punctate keratopathy, and conjunctival scarring. All the medications in use at time of enrollment were maintained. These included topical medications: tacrolimus 0.02% 3 times a day, dexamethasone phosphate twice a day, Timolol-brinzolamide drops twice a day, lubricants 6 times a day. In addition, the patient was taking systemic prednisone (25 mg); other systemic immunosuppressants had been previously tried to control the disease but had been suspended due to inefficacy or intolerance. In an unsuccessful attempt to control ocular pain, the prednisone dosage was raised up to 25 mg per day and the patient had been started 3 months before with opioid analgesic Tapentadol 50 mg bid and paracetamol 1000 mg tid. Only the right eye was treated. In this study, the patient received treatment with ocular Fosaprepitant 10 mg/mL (50 μl) 6 times/day for 30 days.
To test corneal sensitivity, a Cochet-Bonnet aesthesiometer (60 mm in length, 0.12 mm diameter) was used. The head of the subject was placed on the chinrest of the slit lamp, and the Cochet-Bonnet filament was neared the volunteer's eye with a perpendicular angle.
(§2) Different filament lengths were tried (starting from 60 mm, 5 mm intervals) until response, and noted. In order to quantify subjective ocular pain, the treated patient was asked to rate the pain felt in the treated eye on a scale from 0 (no pain) to 10 (worst possible pain) before and after the treatment^38.

ocular surface [1] = assay: Gross signs of ocular surface toxicity in mice; conditions: topical Fosaprepitant
ocular surface [2] = assay: Gross signs of ocular surface toxicity in the human subject; assay type: in vivo; conditions: topical Fosaprepitant 10 mg/ml 6 times a day for 30 days
Source text: as §1, with “In this study, the patient received treatment with ocular Fosaprepitant 10 mg/mL (50 μl) 6 times/day for 30 days.” left out

ocular pain = assay: Subjective ocular pain score (0-10) in a treated patient; assay type: in vivo, human
Source text: as §1, §2

cornea = conditions: topical Fosaprepitant 10 mg/ml 6 times a day; cited from earlier work
[3] = Fosaprepitant 10 mg/ml 6 times a day, after one month of treatment

C[C@@H](O[C@H]1OCCN(Cc2nc(O)n(P(=O)(O)O)n2)[C@H]1c1ccc(F)cc1)c1cc(C(F)(F)F)cc(C(F)(F)F)c1 [Fosaprepitant, [3-{[(2R,3S)-2-[(1R)-1-[3,5-bis(trifluoromethyl)phenyl]ethoxy]-3-(4-fluorophenyl)morpholin-4-yl]methyl}-5-oxo-2H-1,2,4-triazol-1-yl]phosphonic acid]
change of cornea sensitivity (mouse cornea nociception; Fosaprepitant 2 mg/ml 6 times a day for 10 days, compared to 10 days PBS instillation, p=0.0195): −31.4%
reduction of cornea sensitivity (mouse cornea nociception; Fosaprepitant 2 mg/ml one time, topical): did not significantly reduce cornea sensitivity
change of cornea sensitivity (mouse cornea nociception; Fosaprepitant 2 mg/ml, single shot vs 10 days treatment, p=0.0174): −27.1%
reduction of nociception (mouse cornea nociception; Fosaprepitant 10 mg/ml single administration vs PBS, p=0.029): −28.1%
maximum possible analgesic effect (MPE) (mouse cornea nociception; Fosaprepitant 10 mg/ml topical, p=0.0006 vs PBS): 44.52%
corneal pain measured as eye wiping counts vs placebo (mouse cornea nociception; Fosaprepitant 50 mg/ml administered once, 30 minutes after administration): significantly reduces corneal pain
maximum possible analgesic effect (MPE) (mouse cornea nociception; Fosaprepitant 50 mg/ml topical, p=0.0001 vs PBS): 52.62%
MPE increase, overall (mouse cornea nociception; Fosaprepitant 50 mg/ml vs PBS, p<0.0001): 21.03 points
MPE (maximal possible effect) (mouse cornea nociception; Fosaprepitant 50 mg/ml, first experiment, SD 14.6): 48.4%
MPE (maximal possible effect) (mouse cornea nociception; Fosaprepitant 50 mg/ml, second experiment, SD 24.9): 43.2%
MPE (maximal possible effect) (mouse cornea nociception; Fosaprepitant 50 mg/ml, third experiment, SD 16.6): 44.2%
reduction of nociception (mouse cornea nociception; Fosaprepitant single administration, 10 mg/ml vs 2 mg/ml, p=0.0005): −23.1%
lower effective concentration in reducing corneal pain (mouse cornea nociception; single administration): 10 mg/mL
corneal sensitivity reduction, WT mice before vs after treatment (mouse cornea nociception; single administration of Fosaprepitant 10 mg/ml, p<0.0001): −47.9
Cochet Bonnet aesthesiometry (corneal sensitivity; Fosaprepitant 10 mg/ml 6 times a day, 2 hours after the first instillation, baseline 60 mm): 50 mm
Cochet Bonnet aesthesiometry, reduction (corneal sensitivity; [3]): 50%
corneal sensitivity (corneal sensitivity; follow-up visit one month after study exit): 60 mm
signs of ocular surface toxicity (ocular surface [1]): no gross signs of ocular surface toxicity
signs of ocular surface toxicity (ocular surface [2]): no gross signs of ocular surface toxicity
corneal pain score (ocular pain; Fosaprepitant 10 mg/ml 6 times a day, 2 hours after the first instillation, baseline 9/10): 0/10
pain score (ocular pain; [3]): 0/10
pain score (ocular pain; follow-up visit one month after study exit, not constant): 1/10
signs of toxicity to the cornea (cornea): did not show obvious signs of toxicity to the cornea

O=C(O)Cc1ccccc1Nc1c(Cl)cccc1Cl [Diclofenac]
% MPE (mouse cornea nociception; Diclofenac 0.1% topical, p=0.0029 vs Fosaprepitant 10 mg/ml): 69.66%

CCCCOc1cc(C(=O)OCCN(CC)CC)ccc1N [Oxybuprocaine]
% MPE (mouse cornea nociception; Oxybuprocaine 4 mg/ml topical, p<0.0001 vs Fosaprepitant 10 mg/ml): 80.59%
MPE difference, Oxybuprocaine higher than Fosaprepitant (mouse cornea nociception; Oxybuprocaine 4 mg/ml vs Fosaprepitant 50 mg/ml, p<0.0001): 35.89 MPE points
MPE increase, overall (mouse cornea nociception; Oxybuprocaine 4 mg/ml vs PBS, p<0.0001): 56.92 points
corneal pain measured as eye wiping counts vs placebo and Fosaprepitant (mouse cornea nociception; Oxybuprocaine 4 mg/ml, topical): significantly reduces corneal pain
MPE (maximal possible effect) (mouse cornea nociception; oxybuprocaine chloride 4 mg/ml, first experiment, SD 9.7): 80.8%
MPE (maximal possible effect) (mouse cornea nociception; oxybuprocaine chloride 4 mg/ml, second experiment, SD 13.9): 84.1%
MPE (maximal possible effect) (mouse cornea nociception; oxybuprocaine chloride 4 mg/ml, third experiment, SD 10.9): 78.2%
